Literature values as cited in patent US9198974B2, “Decorated macromolecular scaffolds” (Mintaka Foundation for Medical Research, priority 2011, dated 2015).

Conditions: meta-substituted aniline; listed as gives the substituent

Row | Structure (SMILES) | pKa, m-
1 | Nc1cccc(Br)c1 [m-Br—] | 3.51
2 | CCOC(=O)c1cccc(N)c1 [m-C2H5O2C—] | 2.38
3 | CCOc1cccc(N)c1 [m-C2H5O—] | 4.17
4 | Nc1cccc(-c2ccccc2)c1 [m-C6H5—] | 4.18
5 | COC(=O)c1cccc(N)c1 [m-CH3O2C—] | 3.56
6 | COc1cccc(N)c1 [m-CH3O—] | 4.20
7 | CSc1cccc(N)c1 [m-CH3S—] | 4.40
8 | Cc1cccc(N)c1 [m-CH3—] | 4.67
9 | Nc1cccc(Cl)c1 [m-Cl—] | 3.32
10 | Nc1cccc(C(F)(F)F)c1 [m-F3C—] | 2.57
11 | Nc1cccc(F)c1 [m-F—] | 3.38
12 | Nc1cccc(N)c1 [m-H2N—] | 4.88
13 | Nc1cccc(C(=O)O)c1 [m-HO2C—] | 3.05
14 | Nc1cccc(O)c1 [m-HO—] | 4.17
15 | Nc1cccc([N+](=O)[O-])c1 [m-O2N—] | 2.45
16 | Nc1cccc(S(=O)(=O)O)c1 [m-O3S—] | 3.32

Same assay, conditions: ortho-substituted aniline; listed as gives the substituent

Row | Structure (SMILES) | pKa, o-
17 | CC(C)(C)c1ccccc1N [o-(CH3)3C—] | 3.78
18 | Nc1ccccc1Br [o-Br—] | 2.6
19 | CCOC(=O)c1ccccc1N [o-C2H5O2C—] | 2.10
20 | CCOc1ccccc1N [o-C2H5O—] | 4.47
21 | Nc1ccccc1-c1ccccc1 [o-C6H5—] | 3.78
22 | COC(=O)c1ccccc1N [o-CH3O2C—] | 2.16
23 | COc1ccccc1N [o-CH3O—] | 4.49
24 | CSc1ccccc1N [o-CH3S—] | 4.05
25 | Cc1ccccc1N [o-CH3—] | 4.38
26 | Nc1ccccc1Cl [o-Cl—] | 2.62
27 | Nc1ccccc1C(F)(F)F [o-F3C—] | 3.49
28 | Nc1ccccc1F [o-F—] | 2.96
29 | Nc1ccccc1N [o-H2N—] | 4.47
30 | Nc1ccccc1C(=O)O [o-HO2C—] | 2.04
31 | Nc1ccccc1O [o-HO—] | 4.72
32 | Nc1ccccc1[N+](=O)[O-] [o-O2N—] | −0.28
33 | Nc1ccccc1S(=O)(=O)O [o-O3S—] | 3.80

Same assay, conditions: preferred aniline catalysts

Row | Structure (SMILES) | pKa
34 | CCOc1ccc(N)cc1 [p-C2H5O—, 4-ethoxy aniline] | 5.2
